# Results: patent US12102695B2, “Half-curcuminoids as amyloid-beta pet imaging agents” (The General Hospital Corporation, priority 2016, dated 2024)
# Columns and labels:
# [1] = system: Aβ plaques and cerebral amyloid angiopathy (CAA); assay: Two-photon microscopic imaging of APP/PS1 mouse; format: in vivo; details: 15-month old APP/PS1 mouse, FIG. 5B
# Procedure: (§1) To investigate whether CRANAD-101 was capable of penetrating brain blood barrier (BBB), two-photon microscopic imaging was conducted using a 15-month old wild type (WT) mouse. A mouse ([…]) was anesthetized with Ketamine/xylazine (70 mg/kg) and a cranial imaging window was surgically prepared. CRANAD-101 (2.0 mg/kg in a fresh solution containing 15% CREMOPHOR EL®, 15% DMSO and 70% PBS) was injected intravenously at time=0 min by a bolus injection during image acquisition. Two-photon fluorescence excitation was performed with a 900-nm laser (Prairie Ultima). Imaging was performed using a two-photon microscope (Prairie Technologies) equipped with a 20× water immersion objective (N.A. 1.0, Zeiss). Images were collected for 15 seconds per frame 512×512 μm matrix for 45 min with a green (500-550 nm) channel.
# The accumulation of CRANAD-101 in the brain reached a peak at 10 minutes after i.v. injection (FIG. 5C, panel f). To examine whether CRANAD-101 could label Aβ plaques and cerebral amyloid angiopathy (CAA) in vivo, a similar two-photo microscopic imaging procedure was performed with a 15-month old APP/PS1 mouse.
# [2] = target: T1, Aβ40 aggregates (Homo sapiens, UniProt P05067); assay: Binding constant (Kd) by fluorescence, Aβ aggregates; details: PBS pH 7.4
# T1 construct: Synthetic Aβ peptides (1-40/42) were purchased from rPeptide; purchased rPeptide (Bogart, Ga.); host or cells: synthetic peptide
# Procedure: (§2) Starting materials and solvents used in the Examples were purchased from commercial vendors and used without further purification, unless otherwise noted. The pH of the PBS buffer was 7.4. Column chromatography was performed on silica gel (SiliCycle Inc., 60 Å, […]) slurry packed into glass columns. Synthetic Aβ peptides (1-40/42) were purchased from rPeptide (Bogart, Ga., 30622). Aggregates for in vitro studies were generated by the slow stirring of Aβ40 in PBS buffer for 3 days at room temperature. CRANAD-101F (Example 1) was dissolved in DMSO to prepare a 25.0 μM stock solution. ^1H and ^13C NMR spectra were recorded at […] and 125 MHz, respectively, and reported in ppm downfield from tetramethylsilane (TMS). Fluorescence measurements were performed using an F-4500 fluorescence spectrophotometer (Hitachi). […]
# (§3) To record the fluorescence response of CRANAD-101 with Aβs, the following procedure was used. Step 1: 1.0 mL of PBS buffer was added to a quartz cuvette as a blank control and its fluorescence was recorded with the same parameters as for CRANAD-101. Step 2: The fluorescence emission spectrum of a CRANAD-101 solution (1.0 mL, 250 nM) was recorded with excitation at 420 nm and emission from 450 to 800 nm. […] The emission spectra was recorded (Excitation=420 nm, Emission=450-800 nm). […]
# [3] = target: T2, Aβ42 dimers (Homo sapiens, UniProt P05067); assay: Binding constant (Kd) by fluorescence, Aβ42 dimers; details: PBS pH 7.4
# T2 construct: Synthetic Aβ peptides (1-40/42) were purchased from rPeptide; purchased rPeptide (Bogart, Ga.); host or cells: synthetic peptide
# Procedure: as §2, §3
# [4] = Fluorescence spectrum of the probe; format: physicochemical
# Procedure: (§4) To record the fluorescence response of CRANAD-101 with Aβs, the following procedure was used. Step 1: 1.0 mL of PBS buffer was added to a quartz cuvette as a blank control and its fluorescence was recorded with the same parameters as for CRANAD-101. Step 2: The fluorescence emission spectrum of a CRANAD-101 solution (1.0 mL, 250 nM) was recorded with excitation at 420 nm and emission from 450 to 800 nm. Step 3: To the CRANAD-101 solution from Step 2, 10 μL Aβs (25 μM) was added (final concentration 250 nM). The emission spectra was recorded (Excitation=420 nm, Emission=450-800 nm). The final spectra from Steps 2 and 3 were corrected using the blank control from Step 1.
# (§5) The emission peak of CRANAD-101 was approximately 550 nm, and its excitation peak was approximately 420 nm. To confirm whether CRANAD-101 was responsive to Aβs, including monomers, dimers, oligomers, and aggregates, PBS buffer was used as a blank, CRANAD-101 (250 nM, final concentration) was added in PBS buffer and the fluorescence intensity was recorded. Next, Aβ monomer (250 nM, final concentration) was added, and the fluorescence intensity was recorded. The same procedure was then performed for Aβ dimers, Aβ oligomers, and Aβ aggregates. The binding constant (Kd) of CRANAD-101 was also measured for Aβs.
# [5] = system: Aβ plaques; assay: Brain slice testing, fluorescence microscopy of APP/PS1 mouse brain slice; details: 11-month old APP/PS1 mouse slice, 25 μM, 30 minutes, FIG. 3A
# Procedure: A brain slice of 11-month old APP/PS1 mouse was washed with double-distilled water for 5 minutes, then fixed with 4% formalin for 5 minutes, and washed with double-distilled water. First, a background image of a brain slice was taken using a fluorescence microscope. Next, an image was taken after the slice was incubated with CRANAD-101 (25 μM) for 30 minutes.
# [6] = system: diffusible Aβ deposits; assay: Fluorescence microscopy of AD patient brain slice; design: species or system human; details: FIG. 3D
# [7] = system: Aβ; assay: In vivo PET imaging, 14-month old APP/PS1 and WT mice; design: species or system mouse; details: i.v.
# Procedure: In vivo PET imaging was conducted with 14-month old APP/PS1 mice (Charles River Laboratories, MA) and age-matched wild-type (WT) mice. Mice were injected via tail-vein with 100 μL of 20-30 μCi of [^18F]CRANAD-101 (Example 2) in 10% ethanol saline. MicroPET imaging experiments were performed on a Sophie Biosciences microPET G4 scanner (Culver City, Calif., USA). 60-Minute dynamic imaging was performed under general anesthesia (isoflurane/O2). Imaging analysis was conducted with Amide.
# In vivo PET imaging was conducted with 14-month old APP/PS1 mice and age-matched WT mice. Mice were injected (i.v.) with 100 μL of 20-30 μCi of [^18F]CRANAD-101 in 10% ethanol saline. The specific activity was determined to be […] at the time of injection.
# [8] = target: T3, Aβ42 oligomers (Homo sapiens, UniProt P05067); assay: Binding constant (Kd) by fluorescence, Aβ42 oligomers; details: PBS pH 7.4
# T3 construct: Synthetic Aβ peptides (1-40/42) were purchased from rPeptide; purchased rPeptide (Bogart, Ga.); host or cells: synthetic peptide
# Procedure: as §2, §3
# [9] = target: T4, Aβ42 monomers (Homo sapiens, UniProt P05067); assay: Binding constant (Kd) by fluorescence, Aβ42 monomers; details: PBS pH 7.4
# T4 construct: Synthetic Aβ peptides (1-40/42) were purchased from rPeptide; purchased rPeptide (Bogart, Ga.); host or cells: synthetic peptide
# Procedure: as §2, §3
# [10] = Two-photon microscopic imaging of wild type mouse (BBB penetration); format: in vivo; details: WT mouse
# Procedure: as §1
# [11] = system: Aβs, including monomers, dimers, oligomers, and aggregates; assay: Fluorescence spectral testing with Aβs; format: binding; details: probe 250 nM, Aβ 250 nM, PBS, excitation 420 nm, FIG. 2
# Procedure: as §4, §5
# T1 sequence (P05067 672-711 limits assumed): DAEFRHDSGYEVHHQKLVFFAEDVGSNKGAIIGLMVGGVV
# T4 sequence (P05067 672-713 limits assumed): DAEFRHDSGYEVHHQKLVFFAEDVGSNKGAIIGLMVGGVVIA
# T3 sequence (P05067 672-713 limits assumed): as above
# T2 sequence (P05067 672-713 limits assumed): as above
smiles,measurement,setting,value
"Cc1nn(-c2ccc(OCCCF)cc2)cc1C=CC1=CC(C2CCC2)=[O+][B-](F)(F)O1 [CRANAD-101, (E)-4-(2-(6-cyclobutyl-2,2-difluoro-2H-1,3,2^4-dioxaborinin-4-yl)vinyl)-1-(4-(3-fluoropropoxy)phenyl)-3-methyl-1H-pyrazole]",labelling of Aβ plaques and CAA in vivo,[1],clearly highlighted Aβ plaques and CAAs
same,Kd,[2],188 ± 104 nM
same,Kd,[3],44 ± 18.9 nM
same,emission peak,[4],approximately 550 nm
same,excitation peak,[4],approximately 420 nm
same,staining of Aβ plaques in brain slice,[5],Aβ plaques could be imaged after the incubation
same,staining of Aβ deposits in AD patient brain slice,[6],can stain diffusible Aβ deposits
same,penetration of the blood-brain barrier and brain accumulation vs other reported 18F labeled curcumin analogues,[7],much higher penetration of the blood-brain barrier (BBB) and brain accumulation
same,Kd,[8],780 ± 173 nM
same,Kd,[9],11.6 ± 11 nM
same,crossing of the BBB,"[10]; 2.0 mg/kg i.v., two-photon, FIG. 5A, 5C",quickly crossed the BBB
same,time of peak accumulation in the brain,"[10]; after i.v. injection 2.0 mg/kg, FIG. 5C panel f",10 min
same,fluorescence response to Aβs,[11],strong responses to Aβs
